# Results taken from patent US7135467B2, “HIV integrase inhibitors” (priority 2003, dated 2006).
# Biological target: T1, HIV-integrase (recombinant integrase) (Human immunodeficiency virus type 1 group M subtype B, UniProt P12497)
# T1 construct: Recombinant integrase (0.26 ng) was incubated with the beads
# Test: HIV-Integrase Inhibition Activity (SPA bead strand-transfer assay)
# Assay type: biochemical
# Conditions: recombinant integrase on biotin labeled substrate DNA/SPA beads, P33 labeled target DNA; read-out: Activity (IC50 against HIV-integrase)
# Method: To evaluate in-vitro activity against HIV-integrase, 5 pmole of biotin labeled substrate DNA was bound to 100 μg of Streptavidin coated PVT SPA beads (Amersham Pharmacia Biotech). Recombinant integrase (0.26 ng) was incubated with the beads for 90 min at 37° C. Unbound enzyme was removed by washing the complex followed by addition of inhibitors and 0.1 fmol of P33 labeled target DNA. The reaction was stopped by adding EDTA to a final concentration of 10 mM. Samples were counted in TopCountNXT (Packard) and the CPM was used as a measure of integration. The reaction condition was as described in A. Engelman and R. Craigie, J. Virol. 69, 5908–5911 (1995). The sequences of substrate and target DNA were described in Nucleic Acid Research 22, 1121–1122 (1994). Activity equal to A refers to a compound having IC50=0.003 to 0.10 μM while B and C denote compounds the following IC50=0.1 to 1.0 μM and IC50≧1.0 μM respectively.
row,Structure (SMILES),IC50
1,"Cc1cc(CNC(=O)c2nc(N3CCCCS3(=O)=O)n(C)c(=O)c2O)ccc1F [Compound 13, N-[(4-fluoro-3-methylphenyl)methyl]-1,6-dihydro-5-hydroxy-1-methyl-6-oxo-2-(tetrahydro-1,1-dioxido-2H-1,2-thiazin-2-yl)-4-pyrimidinecarboxamide]",3 to 100 nM
2,"Cc1ccc(CNC(=O)c2nc(N3CCCCS3(=O)=O)n(C)c(=O)c2O)cc1F [Compound 14, N-[(3-fluoro-4-methylphenyl)methyl]-1,6-dihydro-5-hydroxy-1-methyl-6-oxo-2-(tetrahydro-1,1-dioxido-2H-1,2-thiazin-2-yl)-4-pyrimidinecarboxamide]",3 to 100 nM
3,"Cn1c(N2CCCCS2(=O)=O)nc(C(=O)NCc2ccc(F)c(F)c2)c(O)c1=O [Compound 15, N-[(3,4-difluorophenyl)methyl]-1,6-dihydro-5-hydroxy-1-methyl-6-oxo-2-(tetrahydro-1,1-dioxido-2H-1,2-thiazin-2-yl)-4-pyrimidinecarboxamide]",3 to 100 nM
4,"Cn1c(N2CCCCS2(=O)=O)nc(C(=O)NCCc2ccc(F)cc2)c(O)c1=O [Compound 16, N-[2-(4-fluorophenyl)ethyl]-1,6-dihydro-5-hydroxy-1-methyl-6-oxo-2-(tetrahydro-1,1-dioxido-2H-1,2-thiazin-2-yl)-4-pyrimidinecarboxamide]",≥ 1000 nM
5,"Cn1c(N2CCCCS2(=O)=O)nc(C(=O)NCc2ccc(F)cc2F)c(O)c1=O [Compound 17, N-[(2,4-difluorophenyl)methyl]-1,6-dihydro-5-hydroxy-1-methyl-6-oxo-2-(tetrahydro-1,1-dioxido-2H-1,2-thiazin-2-yl)-4-pyrimidinecarboxamide]",3 to 100 nM
6,"Cn1c(N2CCCCS2(=O)=O)nc(C(=O)NCc2ccc(F)c(Cl)c2)c(O)c1=O [Compound 18, N-[(3-chloro-4-fluorophenyl)methyl]-1,6-dihydro-5-hydroxy-1-methyl-6-oxo-2-(tetrahydro-1,1-dioxido-2H-1,2-thiazin-2-yl)-4-pyrimidinecarboxamide]",3 to 100 nM
7,"Cc1ccc(CNC(=O)c2nc(N3CCCCS3(=O)=O)n(C)c(=O)c2O)cc1C [Compound 19, N-[(3,4-dimethylphenyl)methyl]-1,6-dihydro-5-hydroxy-1-methyl-6-oxo-2-(tetrahydro-1,1-dioxido-2H-1,2-thiazin-2-yl)-4-pyrimidinecarboxamide]",3 to 100 nM
8,"Cn1c(N2CCCCS2(=O)=O)nc(C(=O)NCc2ccc(F)c(C(F)(F)F)c2)c(O)c1=O [Compound 20, N-[[4-fluoro-3-(trifluoromethyl)phenyl]methyl]-1,6-dihydro-5-hydroxy-1-methyl-6-oxo-2-(tetrahydro-1,1-dioxido-2H-1,2-thiazin-2-yl)-4-pyrimidinecarboxamide]",3 to 100 nM
9,"Cn1c(N2CCCCS2(=O)=O)nc(C(=O)NCCc2cccc(F)c2)c(O)c1=O [Compound 21, N-[2-(3-fluorophenyl)ethyl]-1,6-dihydro-5-hydroxy-1-methyl-6-oxo-2-(tetrahydro-1,1-dioxido-2H-1,2-thiazin-2-yl)-4-pyrimidinecarboxamide]",≥ 1000 nM
10,"COc1ccc(CNC(=O)c2nc(N3CCCCS3(=O)=O)n(C)c(=O)c2O)c(OC)c1 [Compound 22, N-[(2,4-dimethoxyphenyl)methyl]-1,6-dihydro-5-hydroxy-1-methyl-6-oxo-2-(tetrahydro-1,1-dioxido-2H-1,2-thiazin-2-yl)-4-pyrimidinecarboxamide]",3 to 100 nM
11,"Cc1ccc(CNC(=O)c2nc(N3CCCCS3(=O)=O)n(C)c(=O)c2O)o1 [Compound 23, 1,6-dihydro-5-hydroxy-1-methyl-N-[(5-methyl-2-furanyl)methyl]-6-oxo-2-(tetrahydro-1,1-dioxido-2H-1,2-thiazin-2-yl)-4-pyrimidinecarboxamide]",3 to 100 nM
12,"COc1ccccc1CNC(=O)c1nc(N2CCCCS2(=O)=O)n(C)c(=O)c1O [Compound 24, 1,6-dihydro-5-hydroxy-N-[(2-methoxyphenyl)methyl]-1-methyl-6-oxo-2-(tetrahydro-1,1-dioxido-2H-1,2-thiazin-2-yl)-4-pyrimidinecarboxamide]",3 to 100 nM
13,"Cn1c(N2CCCCS2(=O)=O)nc(C(=O)NCC(c2ccccc2)c2ccccc2)c(O)c1=O [Compound 25, N-(2,2-diphenylethyl)-1,6-dihydro-5-hydroxy-1-methyl-6-oxo-2-(tetrahydro-1,1-dioxido-2H-1,2-thiazin-2-yl)-4-pyrimidinecarboxamide]",≥ 1000 nM
14,"Cn1c(N2CCCCS2(=O)=O)nc(C(=O)NCCc2ccc(Cl)cc2)c(O)c1=O [Compound 26, N-[2-(4-chlorophenyl)ethyl]-1,6-dihydro-5-hydroxy-1-methyl-6-oxo-2-(tetrahydro-1,1-dioxido-2H-1,2-thiazin-2-yl)-4-pyrimidinecarboxamide]",≥ 1000 nM
15,"COc1ccc(CCNC(=O)c2nc(N3CCCCS3(=O)=O)n(C)c(=O)c2O)cc1 [Compound 27, 1,6-dihydro-5-hydroxy-N-[2-(4-methoxyphenyl)ethyl]-1-methyl-6-oxo-2-(tetrahydro-1,1-dioxido-2H-1,2-thiazin-2-yl)-4-pyrimidinecarboxamide]",≥ 1000 nM
16,"Cn1c(N2CCCCS2(=O)=O)nc(C(=O)NCc2ccccc2F)c(O)c1=O [Compound 28, N-[(2-fluorophenyl)methyl]-1,6-dihydro-5-hydroxy-1-methyl-6-oxo-2-(tetrahydro-1,1-dioxido-2H-1,2-thiazin-2-yl)-4-pyrimidinecarboxamide]",100 to 1000 nM
17,"Cn1c(N2CCCCS2(=O)=O)nc(C(=O)NCc2cccc(C(F)(F)F)c2)c(O)c1=O [Compound 29, 1,6-dihydro-5-hydroxy-1-methyl-6-oxo-2-(tetrahydro-1,1-dioxido-2H-1,2-thiazin-2-yl)-N-[[3-(trifluoromethyl)phenyl]methyl]-4-pyrimidinecarboxamide]",3 to 100 nM
18,"Cn1c(N2CCCCS2(=O)=O)nc(C(=O)NCCc2cccc(Cl)c2)c(O)c1=O [Compound 30, N-[2-(3-chlorophenyl)ethyl]-1,6-dihydro-5-hydroxy-1-methyl-6-oxo-2-(tetrahydro-1,1-dioxido-2H-1,2-thiazin-2-yl)-4-pyrimidinecarboxamide]",100 to 1000 nM
19,"Cn1c(N2CCCCS2(=O)=O)nc(C(=O)NCCc2ccccc2)c(O)c1=O [Compound 31, 1,6-dihydro-5-hydroxy-1-methyl-6-oxo-N-(2-phenylethyl)-2-(tetrahydro-1,1-dioxido-2H-1,2-thiazin-2-yl)-4-pyrimidinecarboxamide]",≥ 1000 nM
20,"Cn1c(N2CCCCS2(=O)=O)nc(C(=O)NCc2ccc(C(F)(F)F)cc2)c(O)c1=O [Compound 32, 1,6-dihydro-5-hydroxy-1-methyl-6-oxo-2-(tetrahydro-1,1-dioxido-2H-1,2-thiazin-2-yl)-N-[[4-(trifluoromethyl)phenyl]methyl]-4-pyrimidinecarboxamide]",100 to 1000 nM
21,"Cn1c(N2CCCCS2(=O)=O)nc(C(=O)NCc2ccco2)c(O)c1=O [Compound 33, N-(2-furanylmethyl)-1,6-dihydro-5-hydroxy-1-methyl-6-oxo-2-(tetrahydro-1,1-dioxido-2H-1,2-thiazin-2-yl)-4-pyrimidinecarboxamide]",100 to 1000 nM
22,"Cn1c(N2CCCCS2(=O)=O)nc(C(=O)NCc2cccs2)c(O)c1=O [Compound 34, 1,6-dihydro-5-hydroxy-1-methyl-6-oxo-2-(tetrahydro-1,1-dioxido-2H-1,2-thiazin-2-yl)-N-(2-thienylmethyl)-4-pyrimidinecarboxamide]",100 to 1000 nM
